Reference: paper PMC10244169, “Psychedelics promote plasticity by directly binding to BDNF receptor TrkB” (Nature Neuroscience, 2023)

What was measured:
[1] = system: pERK; experiment: Western blot of ERK phosphorylation in cortical neurons; format: cell-based, rat
Experimental: In a separate set of experiments to examine the effect of 5-HT2A activation, M100907 (100 nM) was administered as a 10 min pretreatment and remained in the medium for the rest of the experiment. Next, cells were lysed and centrifuged. […] The co-immunoprecipitation was carried out as previously described[11],[23],[24] with minor modifications. Briefly, Magnetic Dynabeads Protein G (Invitrogen, 10004D) were coated with anti-TrkB antibody (R&D Systems, AF1494) at 200 ng of antibody per 1 µl of beads in rotation (2 h, 4 °C). Finally, lysates were mixed with the coated beads (100 µg of total protein per 15 µl of beads) and incubated in rotation (overnight, 4 °C).
Proteins were separated according to their molecular weight by SDS–PAGE and transferred to a polyvinylidene fluoride membrane. Membranes were incubated with the following primary antibodies (all 1:1,000 in 3% BSA in TBS-T, overnight, 4 °C): anti-TrkB (R&D Systems, AF1494), anti-β-actin (Sigma-Aldrich, A1978), anti-phospho-mTOR (Cell Signaling Technology, 5536S), anti-phospho-p44/42 MAPK (Erk1/2) (Cell Signaling Technology, 9106S), anti-mTOR (Cell Signaling Technology, 2972S) and anti-p44/42 MAPK (Erk1/2) (Cell Signaling Technology, 9102S). […] Protein bands were visualized using enhanced chemiluminescent substrate (Thermo Scientific, 32132, ECL Plus) and imaged with a charge-coupled device camera (G:BOX, Syngene).

[2] = system: mice; experiment: Repeated forced swimming test (rFST); format: in vivo, mouse; conditions: M100907 0.5 mg kg^−1
Experimental: rFST was conducted in WT and Y433F^+/− mice as described in literature[33],[92] with minor modifications. Briefly, female and male adult mice were exposed to five consecutive pretest sessions (5 min of duration, 24 h apart). […] The animals were submitted to a 5 min test session 7 days after the drug administration. The apparatus consisted of 5 l glass beaker cylinders (19 cm diameter, 20 cm water column at 23 ± 2 °C). The water was changed between each trial, for each animal. After each session, the animals were dried and kept in a warmed cage before returning to their home cages. The pretest and test sessions were recorded and analyzed by a trained observer blind to treatment and genotype.

[3] = system: mice; experiment: Head-twitch response; format: in vivo, mouse; parameters: key to Mean, figure 7c (head-twitch response) / Mean Diff., figure 7d, Vehicle:Saline vs. Vehicle:LSD / Mean Diff., figure 7d, Vehicle:Saline vs. M100907:Saline / Mean Diff., figure 7d, M100907:Saline vs. M100907:LSD / Mean, figure 7d (head-twitch response) / Mean Diff., figure 7c, WT:Saline vs. WT:LSD / Head-twitch response, Mean: head twitch counts (scored every 2 min over 30 min); conditions: for Head-twitch response, Mean: ext fig 7d
Experimental: Immediately after the last injection, the animals were placed inside a transparent chamber and their activity video-recorded for 30 min. Similarly to previous studies, head twitches were scored as counts every 2 min by observers blinded to treatments and genotypes.

[4] = system: GFP-tagged TrkA.TM; experiment: Microscale thermophoresis (MST) in HEK293T lysates; format: binding
Experimental: (§1) MST experiments were performed using the Monolith NT.115 (Blue/Red) instrument (NanoTemper Technologies). Lysates of HEK293T cells expressing GFP-tagged TrkB (WT, Y433F, TrkA.TM) were lysed, vortexed, sonicated and centrifuged 24 h after transient transfection and used as a source of fluorescently labeled TrkB, similarly to previously described protocols[11],[45]–[47]. The advantage of this approach is the possibility of studying the proteins in close-to-native conditions. However, the presence of other proteins, lipids, nucleic acids and other components of crude cell lysates can alter the diffusion of biomolecules and therefore binding affinities. High viscosity and background signal typically results in the affinity values being orders of magnitude […] than those of more traditional binding assays. […] The measurements were performed in premium coated capillaries (NanoTemper Technologies, MO-K025) using a LED source with 470 nm and 50% infrared-laser power at 25 °C. Analysis was performed using MO Affinity Analysis 2.3. Results were fitted to specific binding with Hill slope equations from GraphPad Prism 9.2.

[5] = target: T1, eGFP-tagged TrkB (WT) (Rattus norvegicus, UniProt Q63604); experiment: Microscale thermophoresis (MST) in HEK293T lysates; format: binding
T1 construct: expressed in transfected cells; host or cells: HEK293T
Experimental: as §1

[6] = target: T2, GFP-tagged TrkB Y433F (Rattus norvegicus, UniProt Q63604, Y433F); experiment: Microscale thermophoresis (MST) in HEK293T lysates; format: binding
T2 construct: expressed in transfected cells; host or cells: HEK293T
Experimental: as §1

T1 sequence (Q63604 32-821): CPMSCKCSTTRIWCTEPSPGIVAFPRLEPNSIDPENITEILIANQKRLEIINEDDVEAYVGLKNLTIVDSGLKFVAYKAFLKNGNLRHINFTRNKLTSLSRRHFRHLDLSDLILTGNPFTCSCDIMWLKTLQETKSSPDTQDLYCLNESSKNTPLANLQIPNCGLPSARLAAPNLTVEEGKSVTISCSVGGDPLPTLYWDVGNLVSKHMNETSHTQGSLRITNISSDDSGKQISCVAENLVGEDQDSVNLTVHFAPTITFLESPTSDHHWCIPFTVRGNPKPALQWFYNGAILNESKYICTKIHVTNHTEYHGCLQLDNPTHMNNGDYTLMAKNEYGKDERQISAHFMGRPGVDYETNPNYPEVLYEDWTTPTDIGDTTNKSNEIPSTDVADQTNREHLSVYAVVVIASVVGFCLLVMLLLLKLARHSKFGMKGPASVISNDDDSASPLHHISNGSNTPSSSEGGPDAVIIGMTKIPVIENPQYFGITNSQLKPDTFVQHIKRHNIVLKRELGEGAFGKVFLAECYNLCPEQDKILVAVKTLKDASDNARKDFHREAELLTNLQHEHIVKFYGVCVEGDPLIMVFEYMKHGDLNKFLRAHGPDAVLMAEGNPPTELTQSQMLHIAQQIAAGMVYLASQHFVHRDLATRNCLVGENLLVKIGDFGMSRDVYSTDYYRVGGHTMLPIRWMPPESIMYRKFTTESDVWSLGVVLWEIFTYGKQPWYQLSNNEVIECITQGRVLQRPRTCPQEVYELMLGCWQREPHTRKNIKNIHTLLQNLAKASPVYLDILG
T2 sequence (Q63604 32-821 Y433F): as the sequence (Q63604 32-821) above, with Y402F counted along it

For COc1cccc([C@H](O)C2CCN(CCc3ccc(F)cc3)CC2)c1OC [M100907], the “effect of pretreatment on LSD-induced increase in pERK” value ([1]; M100907 100 nM) was “does not prevent LSD-induced increase in pERK”, the “pERK, group mean (5e)” value ([1]; M100907:Vehicle (M100907 100 nM alone), vehicle 100) was 108 and the “pERK, row mean of M100907 (5e)” value ([1]; over vehicle and LSD treatment, mean of vehicle row 184.0) was 210.8. For the same compound, the “effect of pretreatment on antidepressant-like effect of LSD in rFST” value [2] was “did not prevent the antidepressant-like effect of LSD”, the “effect on LSD-induced head-twitch response” value ([3]; M100907 0.5 mg kg^−1, 30 min before LSD) was “blocked” and the “Mean, figure 7d (head-twitch response)” value ([3]; M100907:Saline group) was 0.2. The “Head-twitch response, Mean” value ([3]; Time (min) 2) was 0.2, the “Head-twitch response, Mean” value ([3]; Time (min) 4) was 0 and the “Head-twitch response, Mean” value ([3]; Time (min) 6) was 0. The “Head-twitch response, Mean” value ([3]; Time (min) 8) was 0, the “Head-twitch response, Mean” value ([3]; Time (min) 10) was 0 and the “Head-twitch response, Mean” value ([3]; Time (min) 12) was 0. The “Head-twitch response, Mean” value ([3]; Time (min) 14) was 0, the “Head-twitch response, Mean” value ([3]; Time (min) 16) was 0 and the “Head-twitch response, Mean” value ([3]; Time (min) 18) was 0. For the same compound, the “Head-twitch response, Mean” value ([3]; Time (min) 20) was 0, the “Head-twitch response, Mean” value ([3]; Time (min) 22) was 0 and the “Head-twitch response, Mean” value ([3]; Time (min) 24) was 0. The “Head-twitch response, Mean” value ([3]; Time (min) 26) was 0, the “Head-twitch response, Mean” value ([3]; Time (min) 28) was 0 and the “Head-twitch response, Mean” value ([3]; Time (min) 30) was 0. The “Mean Diff., figure 7d, Vehicle:Saline vs. M100907:Saline” value ([3]; vehicle minus M100907, Bonferroni's multiple comparisons test) was 2.2.
With CN(C)CCc1c[nH]c2cccc(O)c12 [PSI, psilocin] the “Bmax (best-fit, 1c/1d)” value [4] was 151.3, the “h (best-fit, 1c/1d)” value [4] was 1.115 and the “h (best-fit, 1c/1d)” value ([5]; MST WT) was 0.8209. For the same compound, the “Bmax (best-fit, 1c/1d)” value ([5]; MST WT, fit ambiguous) was ~ 268422, the “binding by MST” value ([5]; native (WT) TrkB) was “directly bind to native TrkB” and the “Bmax (best-fit, 1c/1d)” value ([6]; MST Y433F) was 49.04. For the same compound, the “h (best-fit, 1c/1d)” value ([6]; MST Y433F) was 1.151 and the “binding by MST” value ([6]; Y433F) was “but not to Y433F”.
